One series has as its target T1, hrCXCR2 (Homo sapiens, UniProt P25025).
T1 construct: expressed in transfected cells; host or cells: HEK 293 cells (ECACC No. 85120602), membrane preparation
T1 sequence (P25025 1-360): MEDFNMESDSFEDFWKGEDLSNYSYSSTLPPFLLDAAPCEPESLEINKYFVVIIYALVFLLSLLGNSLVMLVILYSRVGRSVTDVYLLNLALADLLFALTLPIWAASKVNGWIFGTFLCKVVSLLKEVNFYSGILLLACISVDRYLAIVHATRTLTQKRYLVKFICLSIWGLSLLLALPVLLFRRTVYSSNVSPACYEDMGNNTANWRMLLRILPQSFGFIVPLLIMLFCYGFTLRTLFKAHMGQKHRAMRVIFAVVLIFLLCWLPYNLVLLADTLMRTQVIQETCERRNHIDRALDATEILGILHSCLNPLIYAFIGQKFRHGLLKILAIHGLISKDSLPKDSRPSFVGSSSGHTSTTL
In words: Ligand binding assay ([125I]IL-8, HEK 293 membranes). The note with it: displacement of ~50 pM [125I]IL-8 from membranes of HEK 293 cells expressing hrCXCR2, 1.5 hours at room temperature. The source says: [^125I]IL-8 (human, recombinant) was purchased from Amersham, U.K. with a specific activity of 2,000 Ci/mmol. All other chemicals were of analytical grade. High levels of hrCXCR2 were expressed in HEK 293 cells (human embryo kidney 293 cells ECACC No. 85120602) (Lee et al. (1992) J. Biol. Chem. 267 pp 16283-16291). hrCXC2 cDNA was amplified and cloned from human neutrophil mRNA. The DNA was cloned into PCRScript (Stratagene) and clones were identified using DNA. The coding sequence was sub-cloned into the eukaryotic expression vector RcCMV (Invitrogen). Plasmid DNA was prepared using Quiagen Megaprep 2500 and transfected into HEK 293 cells using Lipofectamine reagent (Gibco BRL). Cells of the highest expressing clone were harvested in phosphate-buffered saline containing 0.2%(w/v) ethylenediaminetetraacetic acid (EDTA) and centrifuged (200 g, 5 min.). The cell pellet was resuspended in ice cold homogenisation buffer [10 mM HEPES (pH 7.4), 1 mM dithiothreitol, 1 mM EDTA and a panel of protease inhibitors (1 mM phenyl methyl sulphonyl fluoride, 2 μg/ml soybean trypsin inhibitor, 3 mM benzamidine, 0.5 μg/ml leupeptin and 100 μg/ml bacitracin)] and the cells left to swell for 10 minutes. […] The backing plate was removed from the MultiScreen plate assembly, the filters dried at room temperature, punched out and then counted on a Cobra γ-counter.

The target of series [1] is T2, CXCR2 receptor in human neutrophils (Homo sapiens, UniProt P25025).
T2 construct: Human nutrophils were prepared from EDTA-treated peripheral blood; endogenous in cells; host or cells: human neutrophils from peripheral blood
T2 sequence (P25025 1-360): T1 sequence (P25025 1-360)
In words: Intracellular calcium mobilisation assay (GROα, fluo-3, FLIPR). The series is classed as cell-based. The note with it: A50 concentration of GROα, fluo-3 fluorescence. As for the experimental part: Intracellular Calcium Mobilisation Assay
Human nutrophils were prepared from EDTA-treated peripheral blood, as previously described (Baly et al. (1997) Methods in Enzymology 287 pp 70-72), in storage buffer [Tyrode's salt solution (137 mM NaCl, 2.7 mM KCl, 0.4 mM NaH2PO4) supplemented with 5.7 mM glucose and 10 mM HEPES (pH 7.4)].
The chemokine GROα (human, recombinant) was purchased from R&D Systems (Abingdon, U.K.). All other chemicals were of analytical grade. Changes in intracellular free calcium were measured fluorometrically by loading neutrophils with the calcium sensitive fluorescent dye, fluo-3, as described previously (Merritt et al. (1990) Biochem. J. 269, pp513-519). Cells were loaded for 1 hour at 37° C. in loading buffer (storage buffer with 0.1% (w/v) gelatin) containing 5 μM fluo-3 AM ester, washed with loading buffer and then resuspended in Tyrode's salt solution supplemented with 5.7 mM glucose, 0.1% (w/v) bovine serum albumin (BSA), 1.8 mM CaCl2 and 1 mM MgCl2. […]
A compound of formula (I) according to the Examples was pre-dissolved in DMSO and added to a final concentration of 0.1% (v/v) DMSO. Assays were initiated by the addition of an A50 concentration of GROα and the transient increase in fluo-3 fluorescence (λEx=490 nm and λEm=520 nm) monitored using a FLIPR (Fluorometric Imaging Plate Reader, Molecular Devices, Sunnyvale, U.S.A.). […]

Molecules are shown by their SMILES.

The term melting point denotes the temperature of the solid-liquid transition. Consider `CC(CO)(CO)Nc1nc(SCc2cccc(F)c2F)nc2[nH]c(=O)sc12.[Na]`, for which the melting point was 238 °C (dec.).
In general, IC50 refers to the midpoint of a concentration-inhibition curve. Read a low IC50 as greater potency. Compound `CC(CO)(CO)Nc1nc(SCc2cccc(F)c2F)nc2[nH]c(=O)sc12` [compound of formula (I), 5-[[(2,3-Difluorophenyl)methyl]thio]-7-[[2-hydroxy-1-(hydroxymethyl) 1 methylethyl]amino]-thiazolo[4,5-d]pyrimidin-2(3H)-one] yielded a melting point of 230 to 233 °C. Besides, the IC50 on hrCXCR2 was under 10 µM. In addition, the “antagonism of GROα-induced intracellular calcium increase” value in series [1] was “antagonist”.

The record behind these values is patent US7585867B2, “Substituted thiazolo[4,5-d]pyrimidin-2(3H)-one” (AstraZeneca AB, priority 2002, dated 2009).
